Structures can show the parent of a compound that is named as a salt. Where two headings read alike, the source gives them in different places.
Assays:
[1] = tested on: Human non-small cell lung cancer cells NCI-H1975; test: Cell proliferation assay, NCI-H1975 (CellTiter-Glo); assay type: cell-based; conditions: NCI-H1975, treatment 72 hours, read-out: Cell viability (IC50 nM) NCI-H1975
Protocol: Human non-small cell lung cancer cells NCI-H1975 were cultured in RPIM-1640 culture medium supplemented with 10% fetal bovine serum and 1% penicillin-plus-streptomycin in a cell incubator (37° C., 5% CO2). The cells were seeded in a 96-well plate at a density of 2,000 cells per well (volume: 195 μl) and cultured overnight. On the next day, the compounds were added. In particular, the compounds were diluted at a 3-fold gradient with a starting concentration of 10 mM. 4 μl of each concentration was taken and added into 96 μl of culture medium. […] After treatment for 72 hours, the medium was aspirated and 30 μl of CellTiter-Glo® (Promega) reagent was added. Fluorescence signals were read on Envison (Perkin Elmer), and IC50 values of the compounds for inhibiting cell proliferation were calculated using GraphPad Prism 5.0.

EGFR(WT) = biological target: T1, EGFR(WT) (Homo sapiens, UniProt P00533); test: In vitro enzymatic assay (HTRF), EGFR kinase; assay type: biochemical
T1 construct: made in house; host or cells: insect cell expression system
T1 sequence (P00533 25-1210): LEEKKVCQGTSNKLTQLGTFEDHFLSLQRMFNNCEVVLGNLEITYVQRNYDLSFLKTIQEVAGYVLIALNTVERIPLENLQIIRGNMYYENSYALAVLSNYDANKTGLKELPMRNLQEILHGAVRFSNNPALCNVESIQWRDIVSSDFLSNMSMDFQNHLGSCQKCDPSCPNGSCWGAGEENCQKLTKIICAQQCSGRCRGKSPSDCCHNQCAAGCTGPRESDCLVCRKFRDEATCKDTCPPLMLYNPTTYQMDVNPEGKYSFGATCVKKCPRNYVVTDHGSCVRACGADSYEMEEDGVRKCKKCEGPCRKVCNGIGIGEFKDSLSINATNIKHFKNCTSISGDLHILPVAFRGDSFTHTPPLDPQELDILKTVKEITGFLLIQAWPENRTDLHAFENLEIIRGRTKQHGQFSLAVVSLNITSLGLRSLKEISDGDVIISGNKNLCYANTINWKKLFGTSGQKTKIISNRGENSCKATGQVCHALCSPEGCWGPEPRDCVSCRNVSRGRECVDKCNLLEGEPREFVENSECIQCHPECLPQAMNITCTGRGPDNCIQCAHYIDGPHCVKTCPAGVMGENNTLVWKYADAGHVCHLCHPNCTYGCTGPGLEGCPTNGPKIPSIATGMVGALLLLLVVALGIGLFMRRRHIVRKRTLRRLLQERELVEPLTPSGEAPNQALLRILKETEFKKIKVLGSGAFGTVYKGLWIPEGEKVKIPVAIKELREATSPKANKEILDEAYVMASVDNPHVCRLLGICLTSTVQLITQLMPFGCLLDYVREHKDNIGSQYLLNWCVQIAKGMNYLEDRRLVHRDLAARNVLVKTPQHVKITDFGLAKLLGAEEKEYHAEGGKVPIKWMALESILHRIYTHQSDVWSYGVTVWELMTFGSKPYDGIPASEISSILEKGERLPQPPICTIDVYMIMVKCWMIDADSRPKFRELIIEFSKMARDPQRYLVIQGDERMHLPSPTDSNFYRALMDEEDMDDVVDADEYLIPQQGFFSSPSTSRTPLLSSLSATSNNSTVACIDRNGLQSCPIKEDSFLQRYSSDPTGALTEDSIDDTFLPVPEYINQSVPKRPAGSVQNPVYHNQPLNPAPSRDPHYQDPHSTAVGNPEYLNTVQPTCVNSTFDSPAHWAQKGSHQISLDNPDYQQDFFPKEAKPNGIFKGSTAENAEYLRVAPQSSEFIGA

[2] = tested on: Human skin squamous carcinoma cell line A431; test: Cell proliferation assay, A431 (soft agar, CellTiter-Blue); assay type: cell-based; conditions: A-431, 168 h, A431, treatment 7 days, read-out: Cell viability (IC50 nM) A431
Protocol: Human skin squamous carcinoma cell line A431 was cultured in DMEM supplemented with 10% fetal bovine serum and 1% penicillin-plus-streptomycin in a cell incubator (37° C., 5% CO2). In the tests of the compounds, the bottom substrate was at a concentration of 0.6%. Cells were re-suspended with 0.3% low-melting-point agar, and then seeded in a 96-well plate at a density of 2,000 cells per well (100 μl). The compounds were diluted at a 3-fold gradient with a starting concentration of 10 mM. 2 μl of each concentration was taken and added to 98 μl of culture medium, and then 5.3 μl of the mixture was added to the cell culture medium (final DMSO concentration being 0.1%, v/v). After treatment for one week (7 days), 20 μl of CellTiter-Blue® (Promega) reagent was added, and the plate was incubated at 37° C. for 4 hours. Fluorescence signals were read on Envison (Perkin Elmer), and IC50 values of the compound for inhibiting cell proliferation were calculated using GraphPad Prism 5.0.

[3] = Pharmacokinetic assay in rats; assay type: in vivo; conditions: PO 10 mg/kg single dose, plasma
Protocol: Healthy adult male rats were subjected to single-dose intragastric administration of the test compounds at a dose of 10 mg/kg with 20% sulfobutyl ether-β-cyclodextrin as an excipient. Before the experiment, the animals were fasted overnight, and the fasting time last from 10 hrs prior to the administration to 4 hrs after the administration. At 0.25, 0.5, 1, 2, 4, 6, 8 and 24 hrs after the intragastric administration, blood sampling was conducted. Approximately 0.3 mL of whole blood was collected from retro-orbital venous sinus, and placed into tubes that contained heparin as an anticoagulant. The samples were centrifuged at 4° C. and 4000 rpm for 5 min. The plasma was transferred into centrifuge tubes, and stored at −80° C. till being analyzed. Concentrations of test compounds in the plasma samples were analyzed with non-validated liquid chromatography-tandem mass spectrometry (LC-MS/MS). Plasma concentration-time data of individual animals was analyzed using WinNonlin (Professional Edition, version 6.3; Pharsight Company) software. Non-compartmental model was introduced in concentration analysis. The pharmacokinetic parameters of the test compounds were calculated.

[4] = male rats, Hydrochloride, 10 mg/kg

Compound | IC50 [1] [nM] | IC50 (EGFR(WT)) [nM] | also measured
C=CC(=O)Nc1cc(Nc2nccc(-n3c(=O)[nH]c4cc(C)ccc43)n2)c(OC)cc1N(C)CCN(C)C [Example 9, N-(2-((2-(dimethylamino)ethyl)(methyl)amino)-4-methoxy-5-(4-(5-methyl-2-oxo-2,3-dihydrobenzo[d]imidazol-1-yl)pyrimidin-2-ylamino)phenyl)acrylamide Hydrochloride] |  | 3.93 | 
C=CC(=O)Nc1cc(Nc2nccc(-n3c(=O)[nH]c4cc(F)ccc43)n2)c(OC)cc1N(C)CCN(C)C [Example 11, N-(2-((2-(dimethylamino)ethyl)(methyl)amino)-5-(4-(5-fluoro-2-oxo-2,3-dihydrobenzo[d]imidazol-1-yl)pyrimidin-2-ylamino)-4-methoxyphenyl)acrylamide Hydrochloride] | 3.7 | 2.79 | 
C=CC(=O)Nc1cc(Nc2nccc(-n3c(=O)oc4ccccc43)n2)c(OC)cc1N(C)CCN(C)C [Example 5, N-(2-((2-(dimethylamino)ethyl)(methyl)amino)-4-methoxy-5-(4-(2-oxobenzo[d]oxazol-3(2H)-yl)pyrimidin-2-ylamino)phenyl) acrylamide Hydrochloride] | 17 | 44.9 | 
C=CC(=O)Nc1cc(Nc2nccc(-n3c(=O)[nH]c4ccccc43)n2)c(OC)cc1N(C)CCN(C)C [Example 2, N-(2-((2-(dimethylamino)ethyl)(methyl)amino)-4-methoxy-5-(4-(2-oxo-2,3-dihydrobenzo[d]imidazol-1-yl)pyrimidin-2-ylamino)phenyl)acrylamide Hydrochloride] | 0.96 | 2.59 | 
C=CC(=O)Nc1cc(Nc2nccc(-n3c(=O)n(C)c4ccccc43)n2)c(OC)cc1N(C)CCN(C)C [Example 13, N-(2-((2-(dimethylamino)ethyl)(methyl)amino)-4-methoxy-5-(4-(3-methyl-2-oxo-2,3-dihydro-1H-benzo[d]imidazol-1-yl)pyrimidin-2-ylamino)phenyl)acrylamide] |  |  | Cmax ([3]; male rats, 10 mg/kg): 94.4 ng/mL; t1/2 ([3]; male rats, 10 mg/kg): 147 min; AUC(0-inf) ([3]; male, rat, po, 10 mg/kg): 401 ng·h/mL; Tmax ([3]; rat, male rats, read-out: Tmax): 40.2 min
C=CC(=O)Nc1cc(Nc2nccc(-c3cn(C)c4ccccc34)n2)c(OC)cc1N(C)CCN(C)C [AZD9291, reference compound] | 9.08 |  | IC50 [2]: 53.5 nM
COC/C=C/C(=O)Nc1cc(Nc2nccc(-n3c(=O)n(C)c4ccccc43)n2)c(OC)cc1N(C)CCN(C)C [Example 7, (E)-N-(2-((2-(dimethylamino)ethyl)(methyl)amino)-4-methoxy-5-(4-(3-methyl-2-oxo-2,3-dihydro-1H-benzo[d]imidazol-1-yl)pyrimidin-2-ylamino)phenyl)-4-methoxybut-2-enamide] |  | 164 | 
C=CC(=O)Nc1cc(Nc2ncc(Cl)c(-n3c(=O)n(C)c4ccccc43)n2)c(OC)cc1N(C)CCN(C)C [Example 3, N-(5-(5-chloro-4-(3-methyl-2-oxo-2,3-dihydro-1H-benzo[d]imidazol-1-yl)pyrimidin-2-ylamino)-2-((2-(dimethylamino)ethyl)(methyl)amino)-4-methoxyphenyl) acrylamide Hydrochloride] |  | 196 | 
C=CC(=O)Nc1cc(Nc2ncc(Cl)c(-n3c(=O)[nH]c4ccccc43)n2)c(OC)cc1N(C)CCN(C)C [Example 4, N-(5-(5-chloro-4-(2-oxo-2,3-dihydro-1H-benzo[d]imidazol-1-yl)pyrimidin-2-ylamino)-2-((2-(dimethylamino)ethyl)(methyl)amino)-4-methoxyphenyl) acrylamide Hydrochloride] | 2.87 | 20.6 | 

More lines, main results first:

IC50 [1] [nM] | IC50 (EGFR(WT)) [nM] | Compound | also measured
1.46 | 10.7 | C=CC(=O)Nc1cc(Nc2nccc(-n3c(=O)n(C)c4cc(F)ccc43)n2)c(OC)cc1N(C)CCN(C)C [Example 10, N-(2-((2-(dimethylamino)ethyl)(methyl)amino)-5-(4-(5-fluoro-3-methyl-2-oxo-2,3-dihydrobenzo[d]imidazol-1-yl)pyrimidin-2-ylamino)-4-methoxyphenyl) acrylamide Hydrochloride] | 
4.56 |  | C=CC(=O)Nc1cc(Nc2nccc(-n3c(=O)n(C)c4cc(Cl)ccc43)n2)c(OC)cc1N(C)CCN(C)C [Example 14, N-(5-(4-(5-chloro-3-methyl-2-oxo-2,3-dihydro-1H-benzo[d]imidazole-1-yl)pyrimidin-2-ylamino)-2-((2-(dimethylamino)ethyl)(methyl)amino)-4-methoxyphenyl) acrylamide Hydrochloride] | IC50 [2]: 538 nM
3.17 | 5.26 | C=CC(=O)Nc1cc(Nc2nccc(-n3c(=O)n(C)c4ccccc43)n2)c(OC)cc1N(C)CCNC [Example 12, N-(4-methoxy-2-(methyl(2-(methylamino)ethyl)amino)-5-(4-(3-methyl-2-oxo-2,3-dihydrobenzo[d]imidazol-1-yl)pyrimidin-2-ylamino)phenyl)acrylamide Hydrochloride] | 
2.76 | 9.07 | C=CC(=O)Nc1cc(Nc2nccc(-n3c(=O)n(C)c4ccccc43)n2)c(OC)cc1N(C)CCN(C)C [Example 1, N-(2-((2-(dimethylamino)ethyl)(methyl)amino)-4-methoxy-5-(4-(3-methyl-2-oxo-2,3-dihydro-1H-benzo[d]imidazol-1-yl)pyrimidin-2-ylamino)phenyl)acrylamide Hydrochloride] | Tmax ([3]; male rats): 40.2 min; AUC0-INF [3, 4]: 667 ng·h/mL; Cmax [3, 4]: 272 ng/mL; t1/2 [3, 4]: 67.2 min; IC50 [2]: 22.5 nM
6.83 |  | C=CC(=O)Nc1cc(Nc2nccc(-n3c(=O)n(C)c4cc(Br)ccc43)n2)c(OC)cc1N(C)CCN(C)C [Example 15, N-(5-(4-(5-bromo-3-methyl-2-oxo-2,3-dihydro-1H-benzo[d]imidazole-1-yl)pyrimidin-2-ylamino)-2-((2-(dimethylamino)ethyl)(methyl)amino)-4-methoxyphenyl) acrylamide Hydrochloride] | IC50 [2]: 834 nM

Reference: US10329277B2, “N-(2-((2-(dimethylamino)ethyl)(methyl)amino)-4-methoxy-5-((4-(3-methyl-2-OXO-2,3-dihydro-1h-benzo[d]imidazol-1-yl)pyrimidin-2-yl)amino)phenyl)acrylamide hydrochloride as an inhibitor of epidermal growth factor receptor activity” (CHIA TAI TIANQING PHARMACEUTICAL GROUP CO., LTD., priority 2015, dated 2019)
